Data: US9844595B2, “Composition comprising a complex of (+)-catechin and amino acid for the treatment and prevention of cancer” (VALORE, priority 2013, dated 2017)
Like-named read-outs stand apart in the source and are kept apart here.

How the values were obtained:
[1] = Bioavailability after oral administration in human beings (free monomeric (+)-catechin in plasma, LC-MS/MS)
Method: (§1) With regard to taking the blood samples from the rats and from the human beings, the blood was collected in tubes internally coated with EDTA and was then centrifuged at 3000 rpm (revolutions per minute) at ambient temperature for 45 min, and then for 15 min at a temperature of 4° C. The plasma was then collected and stored at −70° C. before analysis.
(§2) The analytical technique (LC-MS/MS for Liquid Chromatography coupled to tandem Mass Spectrometry) for measuring the active substance in the blood was based on the method described by Mata-Bilbao et al., published in 2007 in the Journal of Agricultural and Food Chemistry, volume 55, page 8857.
(§3) The free (+)-catechin was extracted from the plasma with a solution of phosphoric acid, EDTA and ascorbic acid and was then purified by SPE (solid phase extraction); in particular, it is an Oasis™ HLB extraction which is analyzed by LC-MS/MS. The quantification was carried out according to a standard calibration procedure with (+/−)-catechin-2,3,4-^13C3 as internal standard (SI).
This complex salt is administered to a group A of 5 healthy volunteers.
This ct parameter makes it possible to calculate, from the data of table 1, the bioavailability of the (+)-catechin expressed in ng h/ml.

[2] = for Δct: vs CP
Method: The experimental results described below were obtained on the basis of a study carried out in healthy human beings and in healthy Wistar rats weighing approximately 250 grams.
An acclimation period was observed before beginning the experiments.
The rats received an administration per os of a volume of 5 ml of a solution of active product.
as §1, §2, §3
The procedure is identical with regard to the extraction and the quantification of free quercetin or ECGC in the blood.
With regard to the extraction and quantification of the total (+)-catechin, the procedure is the same as that applied to the free (+)-catechin, with the exception of the fact that an additional step prior to the purification by SPE is carried out.
(§4) Each of the mixtures is then solubilized in water.
Each of the mixtures is solubilized in water.

[3] = type: in vivo, Wistar rats; details: in a period of one hour following the injection
Text: as §4

Solubility in water = type: physicochemical
collagen of rat skin = assay: Total incorporation and incorporation into collagen of 3H-proline in the skin; type: in vivo, Wistar rats; details: 100 mg/kg by gavage, vs control subgroup
Method: To do this, a study was carried out in vivo on a batch of 24 female Wistar rats weighing from 95 to 115 g, divided into two groups C and D, each of 12 rats. For each group, the radioactive 3H-hydroxyproline, the specific activity of which is 13.6 Ci/10-3 mol, was administered to all the animals by intraperitoneal injection of 3H-proline at a dose, relative to the weight of the individuals, of 1 mCi/kg, which represents an activity in terms of radioactive 3H-proline of 100 μCi/individual.
6 rats of each group received a treatment based on monomeric (+)-catechin by gavage in a proportion of 100 mg/kg for 5 days before sacrifice. […] The group C received monomeric (+)-catechin hydrochlorolysinate, while the group D received monomeric (+)-catechin ascorbolysinate.
In table 8, the level of incorporation is measured by the number of disintegrations of the radioactive 3H-hydroxyproline per minute (dpm) per mg of dry weight. The higher this number, the higher the concentration of 3H-hydroxyproline.
In this comparative example, a group E of 12 Wistar rats weighing from 95 to 115 g, in which radioactive 3H-hydroxyproline, the specific activity of which is 13.6 Ci/10-3 mol, was administered to all the individuals by intraperitoneal injection of 3H-proline at a dose, relative to the weight of the individuals, of 1 mCi/kg, which represents an activity in terms of radioactive 3H-proline of 100 μCi/individual.
6 rats of each group received a treatment based on pure monomeric (+)-catechin by gavage in a proportion of 100 mg/kg for 5 days before sacrifice.

[4] = free (+)-catechin, 1 g pure monomeric (+)-catechin, group B
[5] = free monomeric (+)-catechin in plasma
[6] = free (+)-catechin, rats, oral, dose equivalent to 25 mg/kg (+)-catechin, 3 Wistar rats
[7] = free (+)-catechin, rats, per os, dose equivalent to 25 mg/kg (+)-catechin, 5 Wistar rats, pulverulent mixture solubilized in water
[8] = total (+)-catechin (free and conjugated), rats, oral, dose equivalent to 25 mg/kg, 3 Wistar rats

Oc1cc(O)c2c(c1)O[C@H](c1ccc(O)c(O)c1)[C@@H](O)C2 [CP, (+)-catechin]
c (max) related back to 0.92 g of pure (+)-catechin [1]: 258 ng/mL | ct related back to 0.92 g of pure (+)-catechin ([1]; equivalent amount of 0.92 g pure (+)-catechin): 832 ± 150 ng·h/mL | ct related back to 0.920 g of pure (+)-catechin ([1]; equivalent amount of 0.920 g pure (+)-catechin): 49 920 ng min/ml | T (max) [1, 4]: 1.20 h | c (max) [1, 4]: 280 ng/mL | ct (total concentration, area under the curve over six hours) ([1]; free (+)-catechin, 1 g pure monomeric (+)-catechin, group B, listed as pure (+)-catechin): 904 ± 163 ng·h/mL | T (max) [1, 5]: 1.33 h | c (max) for 1 g of monomeric (+)-catechin ingested as it is [1, 5]: 280 ng | T (max) [2, 6]: 0.5 h | Δct [2, 6]: 0% | Δct (difference of ct to CP, related back to CP) ([2]; free (+)-catechin, rats, oral, dose equivalent to 100 mg/kg (+)-catechin): 0% | T (max) ([2]; free (+)-catechin, rats, oral, dose equivalent to 100 mg/kg (+)-catechin, 5 Wistar rats): 1 h | T (max) [2, 7]: 1 h | c (max) [2, 7]: 580 ng/mL | ct [2, 7]: 91 935 ng min/ml | Δct ([2]; free (+)-catechin, rats, per os, dose equivalent to 25 mg/kg, 5 Wistar rats): 0% | decrease of the peak content of free monomeric (+)-catechin in the blood ([2]; oral absorption, after two hours): 50% | T (max) [2, 8]: 0.5 h | c (max) [2, 8]: 2200 ng/mL | Δct ([2]; total (+)-catechin, rats, oral, dose equivalent to 25 mg/kg, 3 Wistar rats): 0% | content of free monomeric (+)-catechin eliminated from the blood [3]: ~90% | solubility in water compared with the complexed form (Solubility in water): 400 times lower | increase in the level of incorporation (collagen of rat skin): +16%
